Assay results taken from patent publication US4937263A, “Antihypercholesterolemic compounds” (Merck & Co., Inc., priority 1989, dated 1990).

System: HMG-CoA reductase
Test: HMG-CoA Reductase Inhibition Assay (in vitro, intrinsic inhibition)
Type: biochemical
Details: IC50 of test compound compared with compactin determined simultaneously, compactin assigned 100; tested as sodium salt of dihydroxy acid form; solubilized rat liver microsomal enzyme
Protocol: The intrinsic HMG-CoA reductase inhibition activity of the claimed compounds is measured in the in vitro protocol published in J. Med. Chem., 28, p. 347-358 (1985) and described below:
Male Holtzman Sprague-Dawley rats (225-250 g) were kept on reversed lighting and fed Purina rat chow containing 3% cholestyramine for 7 days preceding their sacrifice by CO2 asphyxiation. Livers were removed 6 hours into the dark cycle and used immediately to prepare microsomes. HMG-CoA reductase was solubilized from the freshly prepared microsome by the method of Heller and Shrewsbury [J. Biol. Chem., 1976, 251, 3815] and purified through the second ammonium sulfate precipitation step as described by Kleinsek et al. [Proc. Natl. Acad. Sci. U.S.A., 1977, 74, 1431]. The enzyme preparation was tested for HMG-CoA reductase potency and diluted with 100 mM phosphate buffer (pH 7.2) so that 100 μl of the enzyme solution, when added to the assay control, gave a value of 50,000-60,000 dpm. The enzyme preparation was stored at -80° C.
The assay is essentially the procedure of Shefer et al. [J. Lipid Res., 1972, 13, 402]. The complete assay medium contained the following in a total volume of 0.8 ml: phosphate buffer, pH 7.2, 100 mM; MgCl2, 3 mM; NADP, 3 mM; glucose 6-phosphate, 10 mM; glucose-6-phosphate dehydrogenase, 3 enzyme units; reduced glutathione, 50 mM; HMG-CoA (glutaryl-3-^14 C., New England Nuclear), 0.2 mM (0.1 μCi); and partially purified enzyme stock solution, 100 μL.
Test compounds or compactin (after first being converted to the sodium salt of their dihydroxy acid form in situ by addition of IN NaOH (1 equivalent) were added to the assay system in 10 μL volumes at multiconcentration levels. After a 40 minute incubation at 37° C. with shaking and, exposure to air, the reaction was stopped by the addition of 0.4 mL of 8 N HCl. After an additional 30-minute incubation period at 37° C. to ensure the complete lactonization of mevalonic acid to mevalonolactone, 0.2 ml of the mixture was added to an 0.5×5.0 cm column containing 100-200 mesh Bio-Rex 5,chloride form (Bio-Rad), wetted with distilled water, as described by Alberts et al [J. Proc. Natl. Acad. Sci. U.S.A., 1980, 77, 3967]. The unreacted [^14 C]HMG-CoA was absorbed on the resin and the [^14 C]mevalonolactone was eluted with distilled water (2×1 ml) directly into 7-ml scintillation vials. Five milliliters of Aquasol-2 (New England Nuclear) was added to each vial, and radioactivity was measured in a Packard Tri Carb Prias scintillation counter. IC50 values were determined by plotting percentage inhibition against test compound concentration and fitting a straight line to the resulting data by using the least squares method. For estimation of relative inhibitory potencies, compactin was assigned a value of 100 and the IC50 value of the test compound was compared with that of compactin determined simultaneously.

Compound | Relative Potency
C[C@H]1C=C2C=C[C@H](C)[C@H](CC[C@@H](O)C[C@@H](O)CC(=O)O)[C@H]2[C@@H](OC(=O)C(C)(C)c2ccc(O)c(F)c2)C1 | 217
C[C@H]1C=C2C=C[C@H](C)[C@H](CC[C@@H](O)C[C@@H](O)CC(=O)O)[C@H]2[C@@H](OC(=O)C(C)(C)c2ccccc2)C1 | 88
CCOc1ccc(C(C)(C)C(=O)O[C@H]2C[C@@H](C)C=C3C=C[C@H](C)[C@H](CC[C@@H](O)C[C@@H](O)CC(=O)O)[C@H]32)cc1 | 47
C[C@H]1C=C2C=C[C@H](C)[C@H](CC[C@@H](O)C[C@@H](O)CC(=O)O)[C@H]2[C@@H](OC(=O)C(C)(C)c2ccc(CO)cc2)C1 | 36
COc1ccc(C(C)(C)C(=O)O[C@H]2C[C@@H](C)C=C3C=C[C@H](C)[C@H](CC[C@@H](O)C[C@@H](O)CC(=O)O)[C@H]32)cc1 | 144
C[C@H]1C=C2C=C[C@H](C)[C@H](CC[C@@H](O)C[C@@H](O)CC(=O)O)[C@H]2[C@@H](OC(=O)C(C)(C)CCc2ccccc2)C1 | 100
C[C@H]1C=C2C=C[C@H](C)[C@H](CC[C@@H](O)C[C@@H](O)CC(=O)O)[C@H]2[C@@H](OC(=O)C(C)(C)Cc2ccccc2)C1 | 173
C[C@H]1C=C2C=C[C@H](C)[C@H](CC[C@@H](O)C[C@@H](O)CC(=O)O)[C@H]2[C@@H](OC(=O)C(C)(C)Cc2ccc(O)cc2)C1 | 280
C[C@H]1C=C2C=C[C@H](C)[C@H](CC[C@@H](O)C[C@@H](O)CC(=O)O)[C@H]2[C@@H](OC(=O)C(C)(C)c2cccc(O)c2)C1 | 197
C[C@H]1C=C2C=C[C@H](C)[C@H](CC[C@@H](O)C[C@@H](O)CC(=O)O)[C@H]2[C@@H](OC(=O)C(C)(C)c2ccc(O)cc2)C1 | 217
C[C@H]1C=C2C=C[C@H](C)[C@H](CC[C@@H](O)C[C@@H](O)CC(=O)O)[C@H]2[C@@H](OC(=O)C(C)(C)Cc2cc(O)cc(O)c2)C1 | 333
